From paper PMC3586229 (Bioorganic & medicinal chemistry letters, 2012)

Assay type: physicochemical
Details: for Stability in aqueous solution (MS, time course): DMSO solution diluted 1 to 1000 in water, followed over 24 h

For `CC(C)C[C@H](NC(=O)OCc1ccccc1)C(=O)N[C@H](C=O)CC1CCNC1=O` (stereo partly drawn) [Compound 6a], the “Stability in aqueous solution (MS, time course)” value was “the hydrated form was the dominant species after only five minutes exposure to water”.
In the case of `CC(C)C[C@H](NC(=O)OCc1ccccc1)C(=O)N[C@@H](CC1CCNC1=O)C(O)S(=O)(=O)[O-].[Na+]` (stereo partly drawn) [Compound 7a], the “Stability in aqueous solution (MS, time course)” value is reported as “remains unchanged as the bisulfite form after 24 h” and the “Stability in buffer solution” value (buffer solution, pH 7.4) is reported as “gradually dissociates into the corresponding aldehyde 6a within an hour”.
